Laboratory results from patent US12427144B2, “Compounds and methods for the targeted degradation of androgen receptor” (Arvinas Operations, Inc., priority 2019, dated 2025).

Assays:
androgen receptor = molecular target: T1, androgen receptor (Homo sapiens, UniProt P10275); test: AR ELISA assay (PathScan AR Sandwich ELISA), VCaP cells; format: cell-based; settings: drug treatment 5 hours
T1 construct: endogenous in cells; host or cells: VCaP
T1 sequence (P10275 1-920): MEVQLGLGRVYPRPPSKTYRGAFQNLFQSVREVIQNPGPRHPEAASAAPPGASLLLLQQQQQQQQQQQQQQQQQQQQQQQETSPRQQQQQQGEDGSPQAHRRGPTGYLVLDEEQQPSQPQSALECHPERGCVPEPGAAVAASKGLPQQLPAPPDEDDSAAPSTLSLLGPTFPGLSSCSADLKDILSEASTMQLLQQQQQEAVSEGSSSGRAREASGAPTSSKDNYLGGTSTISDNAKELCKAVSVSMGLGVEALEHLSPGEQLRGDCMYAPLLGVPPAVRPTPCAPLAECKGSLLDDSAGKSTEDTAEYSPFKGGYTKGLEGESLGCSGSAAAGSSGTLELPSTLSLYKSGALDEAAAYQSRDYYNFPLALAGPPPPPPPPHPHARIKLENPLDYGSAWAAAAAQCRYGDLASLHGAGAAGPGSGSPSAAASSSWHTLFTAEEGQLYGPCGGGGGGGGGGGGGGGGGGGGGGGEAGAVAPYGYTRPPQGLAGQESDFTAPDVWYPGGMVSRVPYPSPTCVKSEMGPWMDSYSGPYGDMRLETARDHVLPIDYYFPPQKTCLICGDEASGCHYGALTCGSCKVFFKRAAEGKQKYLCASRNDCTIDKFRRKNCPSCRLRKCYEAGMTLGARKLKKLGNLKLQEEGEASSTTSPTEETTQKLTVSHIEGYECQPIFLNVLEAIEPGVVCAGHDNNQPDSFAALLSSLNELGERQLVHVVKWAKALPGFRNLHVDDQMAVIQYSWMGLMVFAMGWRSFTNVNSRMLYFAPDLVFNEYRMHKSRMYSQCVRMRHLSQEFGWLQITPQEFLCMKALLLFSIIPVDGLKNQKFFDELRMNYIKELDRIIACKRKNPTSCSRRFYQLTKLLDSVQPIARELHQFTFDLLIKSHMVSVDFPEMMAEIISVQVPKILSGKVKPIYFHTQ
Protocol: Compounds were evaluated in this assay in LNCaP and/or VCaP cells utilizing similar protocols. The protocols used with VCaP cells are described below. The androgen receptor ELISA assay was performed using PathScan AR Sandwich ELISA (Cell Signaling Catalog #12850) according to the following assay steps:
VCaP cells were seeded at 40,000 cells/well at a volume of 100 μL/well in VCaP assay medium [Phenol red free RPMI (Gibco Cat #11835-030); 5% Charcoal Stripped (Dextran treated) FBS (Omega Scientific, Cat #FB-04); 1% penstrep (Life Technologies, Gibco Cat #: 10378-016)] in Corning 3904 plates. The cells were incubated for a minimum of 3 days. Cells were dosed with PROTACs diluted in 0.01% DMSO and the drug treatment was allowed for 5 hours.
AR ELISA (Cell Signaling) was performed as follows. 1× Cell Signaling Cell lysis buffer was made (Catalogue #9803; comes with the kit). Media from the treated wells is aspirated, and 100 μL 1× cell lysis buffer/well is added. The cells were placed on a shaker for 10 minutes at 4° C. Twenty microliters of lysate was transferred to 100 μl of Diluent in ELISA plate (0.15 μg/ml-[…]). The lysate-diluent mixture was shaken for 30 minutes at 37° C. Allow mouse AR antibody, anti-mouse antibody, TMB, and STOP solution to come to room temperature. The 1×ELISA buffer included in kit was made and loaded in the reservoir. Media from the plates was discarded, the ELISA plate tapped hard on paper towel, and washed 4×200 μl ELISA wash buffer using a plate washer.
One-hundred (100) […] of mouse AR detection Ab was added; the plates were covered and shaken at 37° C. for 1 hour; media was discarded from the plates, the plates were tapped on a paper towel, washed 4× with 200 μL ELISA wash buffer with a plate washer.
One-hundred (100) […] of anti-mouse—HRP conjugated Ab (comes with the kit) was added; the plates were covered and shaken at 37° C. for 30 minutes; the TMB reagent was allowed to come to room temperature; the media was discard from the plate, the plates were tapped on paper towel, washed 4× with 200 μL of ELISA wash buffer; the plates were tapped the plates on paper towel. One-hundred (100) L of TMB was added and the plates shaken for 2 minutes—while watching for color development. One-hundred (100) L Stop solution was added when light blue color developed. Plates were shaken and read at 450 nm.
Progression of prostate cancer in patients treated with anti-androgen therapy usually involves one of several mechanisms of enhanced Androgen Receptor (AR) signaling, including increased intratumoral androgen synthesis, increased AR expression and AR mutations. PROTACs (PROteolysis TArgeting Chimera), which use bi-functional molecules that simultaneously bind a target of choice and an E3 ligase, cause ubiquitination via induced proximity and degradation of the targeted, pathological protein. As opposed to traditional target inhibition, which is a competitive process, degradation is a progressive process. As such, it is less susceptible to increases in endogenous ligand, target expression, or mutations in the target. Thus, this technology appears to be ideal for addressing the mechanisms of AR resistance in patients with prostate cancer. Data was analyzed and plotted using GraphPad Prism software.

Androgen Receptor (AR) = molecular target: T2, Androgen Receptor (AR) (Homo sapiens, UniProt P10275); test: AR immunofluorescence staining, high content imager, VCaP cells; format: cell-based; settings: for DC50: AR degradation by immunofluorescence; for Dmax: maximal AR degradation
T2 construct: endogenous in cells; host or cells: VCaP
T2 sequence (P10275 1-920): T1 sequence (P10275 1-920)
In short: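 VCaP cells treated with compound, fixed in 4% PFA (8% 2× solution added directly for low-adherence lines), permeabilised with 0.1% Triton X-100 and blocked. Stained overnight at 4° C with anti-AR antibody, then FITC anti-rabbit secondary plus phalloidin and DAPI/Hoechst. Read by high-content imaging.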

SMILES	DC50 (androgen receptor) [nM]	Dmax (androgen receptor) [%]	DC50 (Androgen Receptor (AR)) [nM]	Dmax (Androgen Receptor (AR)) [%]
CC1(C)[C@H](NC(=O)c2ccc(N3CCC(CN4CCN(c5ccc(C(=O)NC6CCC(=O)NC6=O)cc5)CC4)CC3)nn2)C(C)(C)[C@H]1Oc1ccc(C#N)c(Cl)c1 (stereo partly drawn) [Compound 3, N-[3-(3-chloro-4-cyanophenoxy)-2,2,4,4-tetramethylcyclobutyl]-6-[4-[(4-[4-[(2,6-dioxopiperidin-3-yl)carbamoyl]phenyl]piperazin-1-yl)methyl]piperidin-1-yl]pyridazine-3-carboxamide]	< 1	≥ 70		
CC1(C)[C@H](NC(=O)c2ccc(N3CCC(CN4CCN(c5ccc(C(=O)NC6CCC(=O)NC6=O)cc5)CC4)CC3)cc2)C(C)(C)[C@H]1Oc1ccc(C#N)c(Cl)c1 (stereo partly drawn) [Compound 7, N-((1R,3R)-3-(3-chloro-4-cyanophenoxy)-2,2,4,4-tetramethylcyclobutyl)-4-(4-((4-(4-((2,6-dioxopiperidin-3-yl)carbamoyl)phenyl)piperazin-1-yl)methyl)piperidin-1-yl)benzamide]	< 1	≥ 70		
CC1(C)[C@H](NC(=O)c2ccc(N3CCC(CN4CCN(c5ccc(F)c(C(=O)NC6CCC(=O)NC6=O)c5)CC4)CC3)cc2)C(C)(C)[C@H]1Oc1ccc(C#N)c(Cl)c1 (stereo partly drawn) [Compound 8, 5-(4-((1-(4-(((1R,3R)-3-(3-chloro-4-cyanophenoxy)-2,2,4,4-tetramethylcyclobutyl)carbamoyl)phenyl)piperidin-4-yl)methyl)piperazin-1-yl)-N-(2,6-dioxopiperidin-3-yl)-2-fluorobenzamide]	< 1	< 50		
Cc1cc(O[C@H]2C(C)(C)[C@H](NC(=O)c3ccc(N4CCC(CN5CCN(c6ccnc(C(=O)NC7CCC(=O)NC7=O)c6)CC5)CC4)cc3)C2(C)C)cc(C)c1C#N (stereo partly drawn) [Compound 10, 4-(4-((1-(4-(((1R,3R)-3-(4-cyano-3,5-dimethylphenoxy)-2,2,4,4-tetramethylcyclobutyl)carbamoyl)phenyl)piperidin-4-yl)methyl)piperazin-1-yl)-N-(2,6-dioxopiperidin-3-yl)picolinamide]	< 1	50 to 70		
Cc1cc(O[C@H]2C(C)(C)[C@H](NC(=O)c3ccc(N4CCC(CN5CCOCCCCOc6ccc(C(=O)NC7CCC(=O)NC7=O)cc6O[C@H]6C[C@H]5C6)CC4)cc3)C2(C)C)cc(C)c1C#N (stereo partly drawn) [Compound 74, (1r,18r)-N-(2,6-dioxopiperidin-3-yl)-17-{[1-(4-{[(1r,3r)-3-(4-cyano-3,5-dimethylphenoxy)-2,2,4,4-tetramethylcyclobutyl]carbamoyl}phenyl)piperidin-4-yl]methyl}-2,9,14-trioxa-17-azatricyclo[16.1.1.0^3,8]icosa-3(8),4,6-triene-5-carboxamide]			< 1	< 50
COc1cc(O[C@H]2C[C@H](N3CCOC4(CCN(c5ccc(C(=O)N[C@H]6C(C)(C)[C@H](Oc7cc(C)c(C#N)c(C)c7)C6(C)C)cc5)CC4)C3)C2)cc(C(=O)NC2CCC(=O)NC2=O)c1 (stereo partly drawn) [Compound 76, N-(2,6-dioxopiperidin-3-yl)-3-methoxy-5-[(1r,3r)-3-[9-(4-{[(1r,3r)-3-(4-cyano-3,5-dimethylphenoxy)-2,2,4,4-tetramethylcyclobutyl]carbamoyl}phenyl)-1-oxa-4,9-diazaspiro[5.5]undecan-4-yl]cyclobutoxy]benzamide]			1 to 10	< 50

The next lines start with the values.

DC50 (androgen receptor) [nM]	Dmax (androgen receptor) [%]	DC50 (Androgen Receptor (AR)) [nM]	Dmax (Androgen Receptor (AR)) [%]	SMILES
< 1	≥ 70			Cc1cc(O[C@H]2C(C)(C)[C@H](NC(=O)c3ccc(N4CCC(CN5CCN(c6ccc(C(=O)NC7CCC(=O)NC7=O)cc6)CC5)CC4)nn3)C2(C)C)cc(C)c1C#N (stereo partly drawn) [Compound 2, N-((1R,3R)-3-(4-cyano-3,5-dimethylphenoxy)-2,2,4,4-tetramethylcyclobutyl)-6-(4-((4-(4-((2,6-dioxopiperidin-3-yl)carbamoyl)phenyl)piperazin-1-yl)methyl)piperidin-1-yl)pyridazine-3-carboxamide]
< 1	< 50			CC1(C)[C@H](NC(=O)c2ccc(N3CCC(CN4CCN(c5cccc(C(=O)NC6CCC(=O)NC6=O)c5)CC4)CC3)cc2)C(C)(C)[C@H]1Oc1ccc(C#N)c(Cl)c1 (stereo partly drawn) [Compound 4, 3-(4-((1-(4-(((1R,3R)-3-(3-chloro-4-cyanophenoxy)-2,2,4,4-tetramethylcyclobutyl)carbamoyl)phenyl)piperidin-4-yl)methyl)piperazin-1-yl)-N-(2,6-dioxopiperidin-3-yl)benzamide]
< 1	< 50			Cc1cc(O[C@H]2C(C)(C)[C@H](NC(=O)c3ccc(N4CCC(CN5CCN(c6cncc(C(=O)NC7CCC(=O)NC7=O)c6)CC5)CC4)cc3)C2(C)C)cc(C)c1C#N (stereo partly drawn) [Compound 5, N-(2,6-dioxopiperidin-3-yl)-5-(4-[[1-(4-[[(1r,3r)-3-(4-cyano-3,5-dimethylphenoxy)-2,2,4,4-tetramethylcyclobutyl]carbamoyl]phenyl)piperidin-4-yl]methyl]piperazin-1-yl)pyridine-3-carboxamide]
< 1	50 to 70			Cc1cc(O[C@H]2C(C)(C)[C@H](NC(=O)c3ccc(N4CCC(CN5CCN(c6ccc(F)c(C(=O)NC7CCC(=O)NC7=O)c6)CC5)CC4)cc3)C2(C)C)cc(C)c1C#N (stereo partly drawn) [Compound 6, 5-(4-((1-(4-(((1R,3R)-3-(4-cyano-3,5-dimethylphenoxy)-2,2,4,4-tetramethylcyclobutyl)carbamoyl)phenyl)piperidin-4-yl)methyl)piperazin-1-yl)-N-(2,6-dioxopiperidin-3-yl)-2-fluorobenzamide]
≥ 100	< 50			CC(C)N(CC1CCN(c2cnc(C(=O)N[C@H]3C(C)(C)[C@H](Oc4ccc(C#N)c(Cl)c4)C3(C)C)cn2)CC1)[C@H]1C[C@H](Oc2cccc(C(=O)NC3CCC(=O)NC3=O)c2)C1 (stereo partly drawn) [Compound 9, N-((1R,3R)-3-(3-chloro-4-cyanophenoxy)-2,2,4,4-tetramethylcyclobutyl)-5-(4-((((1R,3R)-3-(3-((2,6-dioxopiperidin-3-yl)carbamoyl)phenoxy)cyclobutyl)(isopropyl)amino)methyl)piperidin-1-yl)pyrazine-2-carboxamide]
		1 to 10	< 50	Cc1cc(O[C@H]2C(C)(C)[C@H](NC(=O)c3ccc(N4CCO[C@@H](CN5CCN(c6ccc(C(=O)N[C@@H]7CCC(=O)NC7=O)c(F)c6)CC5)C4)cc3)C2(C)C)cc(C)c1C#N [Compound 75, N-[(3R)-2,6-dioxopiperidin-3-yl]-2-fluoro-4-(4-{[(2S)-4-(4-{[(1r,3r)-3-(4-cyano-3,5-dimethylphenoxy)-2,2,4,4-tetramethylcyclobutyl]carbamoyl}phenyl)morpholin-2-yl]methyl}piperazin-1-yl)benzamide]
